Experimental data from PMC7024302, “Ultrashort Cationic Lipopeptides–Effect of N-Terminal Amino Acid and Fatty Acid Type on Antimicrobial Activity and Hemolysis” (Molecules, 2020).
Converted amounts (≈) assume the structure as drawn. Residues, ends and D or L forms follow the SMILES beside them.

How the values were obtained:
P. aeruginosa ATCC 9027 = format: cell-based, Pseudomonas aeruginosa; conditions: ATCC 9027, 18 h
How it was run: (§1)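 Lipopeptides, tested from 0.5 to 256 µg/mL, were incubated with bacteria (5 × 10^5 CFU/mL, MHB) for 18 h at 37 °C following CLSI guidance. Triplicate determinations gave the MIC as the lowest growth-inhibiting concentration.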

[1] = Determination of peptide hydrophobicity with RP-HPLC (adjusted retention time); format: physicochemical; conditions: Table 3; adjusted retention time as hydrophobicity; RP-HPLC C18, linear 10–55% acetonitrile over 60 min, 0.1% TFA, 25.0 °C, UV 214 nm, triplicate
How it was run: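 Peptides at 1 g/L in water with 0.1% TFA run on a C18 column (3.0 × 100 mm, 5 µm). Elution with a linear 10–55% acetonitrile gradient over 60 min, 0.1% TFA in both eluents, 0.5 mL/min, 25.0 ± 0.1 °C. Detection at 214 nm, in triplicate.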

[2] = test system: K. pneumoniae ATCC 700603; format: cell-based, Klebsiella pneumoniae; conditions: ATCC 700603, 18 h
How it was run: as §1

E. faecium ATCC 700221 = format: cell-based, Enterococcus faecium; conditions: ATCC 700221, 18 h
How it was run: as §1

S. aureus ATCC 25923 = format: cell-based, Staphylococcus aureus; conditions: ATCC 25923, 18 h
How it was run: as §1

[3] = test system: S. aureus ATCC 33591 (MRSA); format: cell-based, Staphylococcus aureus; conditions: ATCC 33591, 18 h
How it was run: as §1

K. aerogenes ATCC 13048 = format: cell-based, Klebsiella aerogenes; conditions: ATCC 13048, 18 h
How it was run: as §1

[4] = test system: A. baumannii ATCC BAA-1605; format: cell-based, Acinetobacter baumannii; conditions: ATCC BAA-1605, 18 h
How it was run: as §1

C. albicans ATCC 10231 = format: cell-based, Candida albicans; conditions: ATCC 10231, 24 h, pH 7
[5] = test system: human red blood cells (hRBCs); format: cell-based; conditions: red cells of human, 1 h
How it was run: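 Fresh EDTA-anticoagulated human RBCs, PBS-washed, at 4% (v/v) final were exposed to lipopeptides at 0.5–256 µg/mL for 1 h at 37 °C. Released haemoglobin in supernatant read at 540 nm; PBS as 0% and 1% Triton X-100 as 100% haemolysis. Triplicates.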

SMILES | MIC PA (P. aeruginosa ATCC 9027) [µg/mL] | tR’ [1] [min] | MIC K [2] | MIC E1 (E. faecium ATCC 700221) | MIC SA (S. aureus ATCC 25923) | MIC S [3] | MIC E2 (K. aerogenes ATCC 13048) | MIC A [4] [µg/mL] | MIC CA (C. albicans ATCC 10231) [µg/mL] | HC50 [5]
CCCCCCCCCCCCCC(=O)N1CCC[C@H]1C(=O)N[C@@H](CCCNC(=N)N)C(=O)N[C@@H](CCCNC(=N)N)C(N)=O [compound 74, C14-PRR-NH2] | 16 (≈ 25.1 µM) | 42.61 | 256 µg/mL (≈ 402 µM) | 8 µg/mL (≈ 12.6 µM) | 16 µg/mL (≈ 25.1 µM) | 8 µg/mL (≈ 12.6 µM) | 256 µg/mL (≈ 402 µM) | 64 (≈ 100 µM) | 8 (≈ 12.6 µM) | 53.41 (±1.84) µg/mL
CCCCCCCCCCCC(=O)N[C@@H](CCCNC(=N)N)C(=O)N[C@@H](CCCNC(=N)N)C(=O)N[C@@H](CCCNC(=N)N)C(N)=O [compound 81, C12-RRR-NH2] (HELM PEPTIDE1{[CCCCCCCCCCCC(=O)[*:2]].R.R.R.[am]}$$$$V2.0) | 128 (≈ 192 µM) | 30.00 | >256 (-) µg/mL | 16 (>16) µg/mL | 16 (>16) µg/mL | 32 µg/mL (≈ 47.9 µM) | >256 (-) µg/mL | 256 (≈ 383 µM) | 128 (≈ 192 µM) | >256 µg/mL
CCCCCCCCCCCCCC(=O)N[C@H](C(=O)N[C@@H](CCCNC(=N)N)C(=O)N[C@@H](CCCNC(=N)N)C(N)=O)[C@@H](C)O [compound 90, C14-TRR-NH2] (HELM PEPTIDE1{[CCCCCCCCCCCCCC(=O)[*:2]].T.R.R.[am]}$$$$V2.0) | 32 (≈ 49.9 µM) | 40.80 | 128 µg/mL (≈ 200 µM) | 8 µg/mL (≈ 12.5 µM) | 8 µg/mL (≈ 12.5 µM) | 8 µg/mL (≈ 12.5 µM) | 128 µg/mL (≈ 200 µM) | 64 (≈ 99.9 µM) | 8 (≈ 12.5 µM) | 43.43 (±0.90) µg/mL
CCCCCCCCCCCC(=O)N[C@H](C(=O)N[C@@H](CCCNC(=N)N)C(=O)N[C@@H](CCCNC(=N)N)C(N)=O)C(C)C [compound 93, C12-VRR-NH2] (HELM PEPTIDE1{[CCCCCCCCCCCC(=O)[*:2]].V.R.R.[am]}$$$$V2.0) | 32 (≈ 52.4 µM) | 37.17 | >256 (-) µg/mL | 16 µg/mL (≈ 26.2 µM) | 16 µg/mL (≈ 26.2 µM) | 16 µg/mL (≈ 26.2 µM) | 256 µg/mL (≈ 419 µM) | 128 (≈ 210 µM) | 32 (≈ 52.4 µM) | 246.30 (±14.12) µg/mL
CCCCCCCCCCCCCC(=O)N[C@H](C(=O)N[C@@H](CCCNC(=N)N)C(=O)N[C@@H](CCCNC(=N)N)C(N)=O)C(C)C [compound 94, C14-VRR-NH2] (HELM PEPTIDE1{[CCCCCCCCCCCCCC(=O)[*:2]].V.R.R.[am]}$$$$V2.0) | 8 (≈ 12.5 µM) | 44.02 | 128 µg/mL (≈ 200 µM) | 16 µg/mL (≈ 25 µM) | 4 µg/mL (≈ 6.26 µM) | 4 µg/mL (≈ 6.26 µM) | 128 µg/mL (≈ 200 µM) | 32 (≈ 50.1 µM) | 8 (≈ 12.5 µM) | 30.73 (±0.41) µg/mL
CCCCCCCCCCCC(=O)N[C@@H](Cc1c[nH]c2ccccc12)C(=O)N[C@@H](CCCNC(=N)N)C(=O)N[C@@H](CCCNC(=N)N)C(N)=O [compound 97, C12-WRR-NH2] (HELM PEPTIDE1{[CCCCCCCCCCCC(=O)[*:2]].W.R.R.[am]}$$$$V2.0) | 8 (≈ 11.5 µM) | 40.79 | 256 µg/mL (≈ 367 µM) | 8 µg/mL (≈ 11.5 µM) | 4 µg/mL (≈ 5.73 µM) | 2 µg/mL (≈ 2.87 µM) | 256 µg/mL (≈ 367 µM) | 32 (≈ 45.8 µM) | 8 (≈ 11.5 µM) | 42.42 (±0.57) µg/mL

The next lines start with the values.

MIC PA (P. aeruginosa ATCC 9027) [µg/mL] | tR’ [1] [min] | MIC K [2] | MIC E1 (E. faecium ATCC 700221) | MIC SA (S. aureus ATCC 25923) | MIC S [3] | MIC E2 (K. aerogenes ATCC 13048) | MIC A [4] [µg/mL] | MIC CA (C. albicans ATCC 10231) [µg/mL] | HC50 [5] | SMILES
8 (≈ 12.5 µM) | 44.53 | 128 µg/mL (≈ 200 µM) | 4 µg/mL (≈ 6.26 µM) | 4 µg/mL (≈ 6.26 µM) | 4 µg/mL (≈ 6.26 µM) | 128 µg/mL (≈ 200 µM) | 64 (≈ 100 µM) | 4 (≈ 6.26 µM) | 42.04 (±1.38) µg/mL | CCCCCCCCCCCCCC(=O)N[C@@H](CCC)C(=O)N[C@@H](CCCNC(=N)N)C(=O)N[C@@H](CCCNC(=N)N)C(N)=O [compound 70, C14-NvaRR-NH2] (HELM PEPTIDE1{[CCCCCCCCCCCCCC(=O)[*:2]].[Nva].R.R.[am]}$$$$V2.0)
32 (≈ 47.9 µM) | 38.52 | 256 µg/mL (≈ 383 µM) | 16 µg/mL (≈ 24 µM) | 16 µg/mL (≈ 24 µM) | 16 µg/mL (≈ 24 µM) | 256 µg/mL (≈ 383 µM) | 64 (≈ 95.8 µM) | 32 (≈ 47.9 µM) | 72.31 (±3.00) µg/mL | CCCCCCCCCCCCCC(=O)N[C@@H](CCC(N)=O)C(=O)N[C@@H](CCCNC(=N)N)C(=O)N[C@@H](CCCNC(=N)N)C(N)=O [compound 78, C14-QRR-NH2] (HELM PEPTIDE1{[CCCCCCCCCCCCCC(=O)[*:2]].Q.R.R.[am]}$$$$V2.0)
32 (≈ 46 µM) | 36.76 | 128 µg/mL (≈ 184 µM) | 8 µg/mL (≈ 11.5 µM) | 4 µg/mL (≈ 5.75 µM) | 8 µg/mL (≈ 11.5 µM) | 128 µg/mL (≈ 184 µM) | 128 (≈ 184 µM) | 16 (≈ 23 µM) | 211.32 (±9.57) µg/mL | CCCCCCCCCCCCCC(=O)N[C@@H](CCCNC(=N)N)C(=O)N[C@@H](CCCNC(=N)N)C(=O)N[C@@H](CCCNC(=N)N)C(N)=O [compound 82, C14-RRR-NH2] (HELM PEPTIDE1{[CCCCCCCCCCCCCC(=O)[*:2]].R.R.R.[am]}$$$$V2.0)
32 (≈ 51 µM) | 39.72 | 128 µg/mL (≈ 204 µM) | 16 µg/mL (≈ 25.5 µM) | 16 µg/mL (≈ 25.5 µM) | 16 µg/mL (≈ 25.5 µM) | 128 µg/mL (≈ 204 µM) | 32 (≈ 51 µM) | 32 (≈ 51 µM) | 41.54 (±1.29) µg/mL | CCCCCCCCCCCCCC(=O)N[C@@H](CO)C(=O)N[C@@H](CCCNC(=N)N)C(=O)N[C@@H](CCCNC(=N)N)C(N)=O [compound 86, C14-SRR-NH2] (HELM PEPTIDE1{[CCCCCCCCCCCCCC(=O)[*:2]].S.R.R.[am]}$$$$V2.0)
32 (≈ 47.8 µM) | 34.31 | >256 (-) µg/mL | 16 (>16) µg/mL | 16 (>16) µg/mL | 16 (>16) µg/mL | >256 (-) µg/mL | 64 (≈ 95.5 µM) | 32 (≈ 47.8 µM) | >256 µg/mL | CCCCCCCCCC(=O)N[C@@H](Cc1c[nH]c2ccccc12)C(=O)N[C@@H](CCCNC(=N)N)C(=O)N[C@@H](CCCNC(=N)N)C(N)=O [compound 96, C10-WRR-NH2] (HELM PEPTIDE1{[CCCCCCCCCC(=O)[*:2]].W.R.R.[am]}$$$$V2.0)
